Source: patent US8722849B2, “Polypeptides” (Novo Nordisk A/S, priority 2011, dated 2014)
In brackets after ≈: the same amount, converted by molar mass. Where two headings read alike, the source gives them in different places. Starred links: 1 amine or outer side, 2 acyl side, 3 side chain; linkers in the order of their positions; H or OH if unused. Positions of bridges follow the written chain, without caps; N, C: chain ends. Residues, ends and D or L forms follow the SMILES beside them. *: point of attachment. C20 diacid = O=C(O)CCCCCCCCCCCCCCCCCCC(=O)*; γGlu = O=C(O)[C@H](CCC(=O)[*:2])N[*:1]

Experiments:
[1] = molecular target: T1, rat amylin 3(a) receptor (rat calcitonin(a) receptor + rat RAMP3) (Rattus norvegicus, UniProt P32214+Q9JJ73); assay: Assay (II)b functional cAMP FlashPlate assay, rat amylin receptor; type: cell-based; conditions: Table 11
T1 construct: expressed in transfected cells; host or cells: BHK tk'ts 13
T1 sequence (P32214 25-479 isoform P32214-2 limits assumed): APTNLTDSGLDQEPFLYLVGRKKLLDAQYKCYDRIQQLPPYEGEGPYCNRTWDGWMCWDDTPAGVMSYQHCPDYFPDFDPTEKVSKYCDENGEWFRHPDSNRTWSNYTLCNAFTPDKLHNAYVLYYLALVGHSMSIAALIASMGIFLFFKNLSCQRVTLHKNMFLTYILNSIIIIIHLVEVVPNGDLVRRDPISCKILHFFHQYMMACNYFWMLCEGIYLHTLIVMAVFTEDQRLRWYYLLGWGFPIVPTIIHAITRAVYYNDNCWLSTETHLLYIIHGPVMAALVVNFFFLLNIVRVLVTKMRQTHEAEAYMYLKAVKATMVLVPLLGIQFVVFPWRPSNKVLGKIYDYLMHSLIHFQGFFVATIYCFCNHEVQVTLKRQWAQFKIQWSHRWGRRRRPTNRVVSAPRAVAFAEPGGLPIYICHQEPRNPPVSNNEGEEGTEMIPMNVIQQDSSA
T1 sequence (Q9JJ73 23-147 partner): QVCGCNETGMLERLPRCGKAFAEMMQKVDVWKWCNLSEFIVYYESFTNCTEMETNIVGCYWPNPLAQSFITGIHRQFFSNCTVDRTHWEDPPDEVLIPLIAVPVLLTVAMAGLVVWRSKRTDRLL
How it was run: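 BHK tk'ts 13 cells transiently transfected with rat calcitonin(a) receptor, alone or with rat RAMP3 (amylin 3(a)), were stimulated 24 hours later with sample for 30 min in buffer containing IBMX. cAMP measured by competitive radioactive FlashPlate assay, scintillation read after 3 h detection incubation.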

[2] = Assay (III) ThT fibrillation assay for physical stability; type: physicochemical; conditions: ThT fibrillation assay
How it was run: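 Freshly prepared formulations, pH-adjusted, with 1 μM ThT; four or eight replicates incubated at 37 °C under 960 rpm orbital shaking. Fluorescence (ex 444/em 485 nm) read every 20 min; […]. Peptide concentration measured by RP-HPLC before and after the run.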

[3] = Assay (IV) determination of solubility; type: physicochemical
How it was run: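 Polypeptide in water (~500 nmol/ml) mixed 1:1 with 100 mM glycylglycine (pH 3.0–5.0) or bistrispropane (pH 6.0–8.0) buffers. Held 18 hours at room temperature, then centrifuged. Polypeptide remaining in solution quantified by HPLC.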

[4] = bistrispropane buffer, pH 6, pH 6.0, read-out: Solubility pH 6.0
[5] = bistrispropane buffer, pH 6.5, pH 6.5, read-out: Solubility pH 6.5
[6] = bistrispropane buffer, pH 7, pH 7.0, read-out: Solubility pH 7.0
[7] = bistrispropane buffer, pH 7.5, pH 7.5, read-out: Solubility pH 7.5
[8] = bistrispropane buffer, pH 8, pH 8.0, read-out: Solubility pH 8.0
[9] = glycylglycine buffer, pH 3, pH 3.0, read-out: Solubility pH 3.0
[10] = glycylglycine buffer, pH 4, pH 4.0, 18 hours at room temperature, Table 2, read-out: Solubility pH 4.0
[11] = glycylglycine buffer, pH 4, pH 4.0, read-out: Solubility pH 4.0
[12] = glycylglycine buffer, pH 5, pH 5.0, read-out: Solubility pH 5.0

CC[C@H](C)[C@H](NC(=O)[C@@H]1CCCN1C(=O)CNC(=O)[C@H](Cc1ccccc1)NC(=O)[C@H](CC(N)=O)NC(=O)[C@H](CC(N)=O)NC(=O)[C@H](CO)NC(=O)[C@H](CO)NC(=O)[C@H](CCCNC(=N)N)NC(=O)[C@H](Cc1c[nH]cn1)NC(=O)[C@H](CC(C)C)NC(=O)[C@H](Cc1ccccc1)NC(=O)[C@H](CCC(=O)O)NC(=O)[C@H](C)NC(=O)[C@H](CC(C)C)NC(=O)[C@H](CCCNC(=N)N)NC(=O)[C@H](CCC(N)=O)NC(=O)[C@@H](NC(=O)[C@H](C)NC(=O)[C@@H]1CSSC[C@H](NC(=O)[C@H](Cc2c[nH]cn2)NC(=O)CC[C@H](NC(=O)CCCCCCCCCCCCCCCCCCC(=O)O)C(=O)O)C(=O)N[C@@H](CC(N)=O)C(=O)N[C@@H]([C@@H](C)O)C(=O)N[C@@H](C)C(=O)N[C@@H]([C@@H](C)O)C(=O)N1)[C@@H](C)O)C(=O)N[C@@H](CC(C)C)C(=O)N1CCC[C@H]1C(=O)N1CCC[C@H]1C(=O)N[C@H](C(=O)N[C@@H](CC(N)=O)C(=O)N[C@H](C(=O)NCC(=O)N[C@@H](CO)C(=O)N[C@@H](CC(N)=O)C(=O)N[C@H](C(=O)N[C@@H](Cc1ccc(O)cc1)C(N)=O)[C@@H](C)O)C(C)C)[C@@H](C)O [Example 1, N-alpha-[(S)-4-Carboxy-4-(19-carboxynonadecanoylamino)butyryl]-[His1,Glu14,His17,Arg18]-pramlintide] ({C20 diacid-γGlu}-HCNTATCATQRLAEFLHRSSNNFGPILPPTNVGSNTY-NH2; disulfide 2-7 (inferred))
EC50 [1]: 0.0645 nM | ThT pH 4.0 lag time (h) [2]: 11 h | solubility at 18 h [3, 4]: 52 µM (≈ 233 µg/mL) | solubility at 18 h [3, 5]: 16 µM (≈ 71.7 µg/mL) | solubility at 18 h [3, 6]: 15 µM (≈ 67.3 µg/mL) | solubility at 18 h [3, 7]: 58 µM (≈ 260 µg/mL) | solubility at 18 h [3, 8]: 138 µM (≈ 619 µg/mL) | solubility at 18 h [3, 9]: > 200 µM | solubility at 18 h [3, 10]: > 200 µM | solubility at 18 h [3, 11]: > 200 µM | solubility at 18 h [3, 12]: > 200 µM

CC[C@H](C)[C@H](NC(=O)[C@@H]1CCCN1C(=O)CNC(=O)[C@H](Cc1ccccc1)NC(=O)[C@H](CC(N)=O)NC(=O)[C@H](CC(N)=O)NC(=O)[C@H](CO)NC(=O)[C@H](CO)NC(=O)[C@H](Cc1c[nH]cn1)NC(=O)[C@H](Cc1c[nH]cn1)NC(=O)[C@H](CC(C)C)NC(=O)[C@H](Cc1ccccc1)NC(=O)[C@H](CCC(=O)O)NC(=O)[C@H](C)NC(=O)[C@H](CC(C)C)NC(=O)[C@H](CCCNC(=N)N)NC(=O)[C@H](CCC(N)=O)NC(=O)[C@@H](NC(=O)[C@H](C)NC(=O)[C@@H]1CSSC[C@H](NC(=O)[C@H](Cc2c[nH]cn2)NC(=O)[C@H](Cc2c[nH]cn2)NC(=O)[C@H](Cc2c[nH]cn2)NC(=O)CC[C@H](NC(=O)CCCCCCCCCCCCCCCCCCC(=O)O)C(=O)O)C(=O)N[C@@H](CC(N)=O)C(=O)N[C@@H]([C@@H](C)O)C(=O)N[C@@H](C)C(=O)N[C@@H]([C@@H](C)O)C(=O)N1)[C@@H](C)O)C(=O)N[C@@H](CC(C)C)C(=O)N1CCC[C@H]1C(=O)N1CCC[C@H]1C(=O)N[C@H](C(=O)N[C@@H](CC(N)=O)C(=O)N[C@H](C(=O)NCC(=O)N[C@@H](CO)C(=O)N[C@@H](CCCNC(=N)N)C(=O)N[C@H](C(=O)N[C@@H](Cc1ccc(O)cc1)C(N)=O)[C@@H](C)O)C(C)C)[C@@H](C)O [Example 21, N-alpha-[(S)-4-Carboxy-4-(19-carboxynonadecanoylamino)butyryl]-His-His-[His1,Glu14,His17,Arg35]-pramlintide] ({C20 diacid-γGlu}-HHHCNTATCATQRLAEFLHHSSNNFGPILPPTNVGSRTY-NH2; disulfide 4-9 (inferred))
EC50 [1]: 0.133 nM | ThT pH 4.0 lag time (h) [2]: 1 h | solubility at 18 h [3, 4]: > 200 µM | solubility at 18 h [3, 5]: 87 µM (≈ 416 µg/mL) | solubility at 18 h [3, 9]: > 200 µM | solubility at 18 h [3, 10]: > 200 µM | solubility at 18 h [3, 11]: > 200 µM | solubility at 18 h [3, 12]: > 200 µM | solubility at 18 h ([3]; pH 8.0, read-out: Solubility pH 8.0): 1 µM (≈ 4.78 µg/mL)

CC[C@H](C)[C@H](NC(=O)[C@@H]1CCCN1C(=O)CNC(=O)[C@H](Cc1ccccc1)NC(=O)[C@H](CC(N)=O)NC(=O)[C@H](CC(N)=O)NC(=O)[C@H](CO)NC(=O)[C@H](CO)NC(=O)[C@H](Cc1c[nH]cn1)NC(=O)[C@H](Cc1c[nH]cn1)NC(=O)[C@H](CC(C)C)NC(=O)[C@H](Cc1ccccc1)NC(=O)[C@H](CCC(=O)O)NC(=O)[C@H](C)NC(=O)[C@H](CC(C)C)NC(=O)[C@H](CCCNC(=N)N)NC(=O)[C@H](CCC(N)=O)NC(=O)[C@@H](NC(=O)[C@H](C)NC(=O)[C@@H]1CSSC[C@H](NC(=O)[C@H](Cc2c[nH]cn2)NC(=O)[C@H](Cc2c[nH]cn2)NC(=O)[C@H](Cc2c[nH]cn2)NC(=O)CC[C@H](NC(=O)CCCCCCCCCCCCCCCCCCC(=O)O)C(=O)O)C(=O)N[C@@H](CCCNC(=N)N)C(=O)N[C@@H]([C@@H](C)O)C(=O)N[C@@H](C)C(=O)N[C@@H]([C@@H](C)O)C(=O)N1)[C@@H](C)O)C(=O)N[C@@H](CC(C)C)C(=O)N1CCC[C@H]1C(=O)N1CCC[C@H]1C(=O)N[C@H](C(=O)N[C@@H](CC(N)=O)C(=O)N[C@H](C(=O)NCC(=O)N[C@@H](CO)C(=O)N[C@@H](CC(N)=O)C(=O)N[C@H](C(=O)N[C@@H](Cc1ccc(O)cc1)C(N)=O)[C@@H](C)O)C(C)C)[C@@H](C)O [Example 22, N-alpha-[(S)-4-Carboxy-4-(19-carboxynonadecanoylamino)butyryl]-His-His-[His1,Arg3,Glu14,His17]-pramlintide] ({C20 diacid-γGlu}-HHHCRTATCATQRLAEFLHHSSNNFGPILPPTNVGSNTY-NH2; disulfide 4-9 (inferred))
EC50 [1]: 0.261 nM | ThT pH 4.0 lag time (h) [2]: 2.7 h | solubility at 18 h [3, 4]: > 200 µM | solubility at 18 h [3, 5]: 57 µM (≈ 273 µg/mL) | solubility at 18 h [3, 6]: 2 µM (≈ 9.56 µg/mL) | solubility at 18 h [3, 7]: 1 µM (≈ 4.78 µg/mL) | solubility at 18 h [3, 8]: 3 µM (≈ 14.3 µg/mL) | solubility at 18 h [3, 9]: > 200 µM | solubility at 18 h [3, 10]: > 200 µM | solubility at 18 h [3, 11]: > 200 µM | solubility at 18 h [3, 12]: > 200 µM

CC[C@H](C)[C@H](NC(=O)[C@@H]1CCCN1C(=O)CNC(=O)[C@H](Cc1ccccc1)NC(=O)[C@H](CC(N)=O)NC(=O)[C@H](CC(N)=O)NC(=O)[C@H](CO)NC(=O)[C@H](CO)NC(=O)[C@H](Cc1c[nH]cn1)NC(=O)[C@H](Cc1c[nH]cn1)NC(=O)[C@H](CC(C)C)NC(=O)[C@H](Cc1ccccc1)NC(=O)[C@H](CCC(=O)O)NC(=O)[C@H](C)NC(=O)[C@H](CC(C)C)NC(=O)[C@H](CCCNC(=N)N)NC(=O)[C@H](CCC(N)=O)NC(=O)[C@@H](NC(=O)[C@H](C)NC(=O)[C@@H]1CSSC[C@H](NC(=O)[C@H](CCCCN)NC(=O)[C@H](CCC(=O)O)NC(=O)CC[C@H](NC(=O)CCCCCCCCCCCCCCCCCCC(=O)O)C(=O)O)C(=O)N[C@@H](CC(N)=O)C(=O)N[C@@H]([C@@H](C)O)C(=O)N[C@@H](C)C(=O)N[C@@H]([C@@H](C)O)C(=O)N1)[C@@H](C)O)C(=O)N[C@@H](CC(C)C)C(=O)N1CCC[C@H]1C(=O)N1CCC[C@H]1C(=O)N[C@H](C(=O)N[C@@H](CC(N)=O)C(=O)N[C@H](C(=O)NCC(=O)N[C@@H](CO)C(=O)N[C@@H](CC(N)=O)C(=O)N[C@H](C(=O)N[C@@H](Cc1ccc(O)cc1)C(N)=O)[C@@H](C)O)C(C)C)[C@@H](C)O [Example 26, N-alpha-[(S)-4-Carboxy-4-(19-carboxynonadecanoylamino)butyryl]-Glu-[Glu14,His17]-pramlintide] ({C20 diacid-γGlu}-EKCNTATCATQRLAEFLHHSSNNFGPILPPTNVGSNTY-NH2; disulfide 3-8 (inferred); C-terminus assumed)
EC50 [1]: 0.476 nM | ThT pH 4.0 lag time (h) [2]: 2 h | solubility at 18 h [3, 4]: > 200 µM | solubility at 18 h [3, 5]: > 200 µM | solubility at 18 h ([3]; bistrispropane buffer, pH 7, pH 7.0, 18 hours at room temperature, Table 3, read-out: Solubility pH 7.0): > 200 µM | solubility at 18 h [3, 6]: > 200 µM | solubility at 18 h [3, 7]: > 200 µM | solubility at 18 h [3, 8]: > 200 µM | solubility at 18 h [3, 9]: > 200 µM | solubility at 18 h [3, 10]: > 200 µM | solubility at 18 h [3, 11]: > 200 µM | solubility at 18 h [3, 12]: > 200 µM
